{
  "source": "patent US20240165123A1",
  "about": "“USE OF A COMPOUND CONTAINING A TRICYCLIC HETEROARYL GROUP” (CSPC Zhongqi Pharmaceutical Technology (Shijiazhuang) Co., …, priority 2021, published 2024)",
  "system": "MRL/lpr lupus erythematosus model mice",
  "assay_type": "in vivo",
  "design": "key to Kidney IHC (IgG) pathological score, bilateral kidneys: product score; 0 negative, 1-3 low, 4-8 medium, 9-12 high",
  "settings": "prednisone 6 mg/kg QD",
  "description": "• female MRL/lpr mice aged 4 weeks, number: 50; • female C57BL/6 mice aged 4 weeks, number: 10.\nAccording to the concentration of the serum anti-ds-DNA antibody, female MRL/lpr mice were randomly divided into five groups: model group: solvent (aqueous solution containing 0.4% Tween 80 and 0.5% methylcellulose) 10 mL/kg BID, positive control group: prednisone 6 mg/kg QD, compound (I) 20, 40 and 60 mg/kg BID groups, the administration volumes respectively: 10 mL/kg. In addition, female C57BL/6 mice served as the normal control group. The animals in the Compound (I) group and the model group were administrated with the medicament or the solvent by gavage twice a day starting from the beginning of five weeks of age with an interval of 8 hours between two administrations; prednisone was administered to the animals by gavage once a day from the beginning of five weeks of age; the administration was totally performed for 17 weeks.\nTwo mice in the model group died at 15 and 16 weeks of administration, respectively, and 8 mice remained at the end of the test; one mouse in the compound (I) 20 mg/kg bid group died in the later period of the 16th week of administration, and 9 mice remained at the end of the test; and no death of mice occurred in other groups.\nThe skin destructions on the face, ears and back of mice were observed and scored once a week for 17 times totally.\nScoring system: 1) red swelling and bleeding of the skin; 2) the extent of hair loss and skin dryness; 3) edema; 4) excoriation/corrosion; 5) lichenoid sclerotic plaque and other symptoms. The score of each item was as follows: normal=0 points; slight=1 point; moderate=2 points; severe=3 points. The severity of skin destruction was determined according to the total score of each evaluated symptom. […]\nThe lymph nodes of MRL/lpr mice were scored once a week for a total of 17 times during the test.\nAccording to the lymph node diameter (cm), the score values were 0-6 points: • 0 point: normal; • 1 point: small (the diameter at one location of points on both sides was less than 1 cm); • 2 points: small (the diameters at two location of points on both sides were less than 1 cm); • 3 points: small (the diameters at three location of points on both sides were less than 1 cm); • 4 points: large (the diameter at one location of points on both sides was larger than 1 cm, the diameters at the other two location of points on both sides were less than 1 cm); • 5 points: large (the diameters at two location of points on both sides were larger than 1 cm, and the diameter at the other location of points on both sides was less than 1 cm); • 6 points: large (the diameters at three location of points on both sides were greater than 1 cm). […]\nKidney HE scoring criteria: […]\nDuring the test, the concentration of serum anti-ds-DNA antibody of mice were detected every 4 weeks for 16 weeks.\nAt the end of the test, the serum cytokine levels of mice were detected by ELISA. […] See Table 25 and FIG. 17 for details.",
  "note": "Where two headings read alike, the source gives them in different places.",
  "data": [
    {"smiles": "C[C@]12C=CC(=O)C=C1CC[C@@H]1[C@@H]2C(=O)C[C@@]2(C)[C@H]1CC[C@]2(O)C(=O)CO", "note": "[prednisone, reference compound]", "values": [
      {"measurement": "Area under the urine protein curve", "setting": "16 weeks", "value": "2360.38 ± 161.30", "unit": "wk*mg/L"},
      {"measurement": "Kidney HE pathological score of both kidneys, Activity index", "setting": "after 17 weeks of treatment", "value": "1.80 ± 0.36"},
      {"measurement": "Kidney HE pathological score of both kidneys, Chronicity index", "setting": "after 17 weeks of treatment", "value": "4.90 ± 0.62"},
      {"measurement": "Kidney HE pathological score of both kidneys, Tubulointerstitial lesions", "setting": "after 17 weeks of treatment", "value": "3.60 ± 0.45"},
      {"measurement": "Kidney IHC (IgG) pathological score, bilateral kidneys", "setting": "after 17 weeks of treatment", "value": "7.90 ± 0.77"},
      {"measurement": "Skin HE pathological score", "setting": "after 17 weeks of treatment", "value": "1.80 ± 0.36"},
      {"measurement": "Total kidney weight", "setting": "after 17 weeks of treatment", "value": "0.3526 ± 0.01", "unit": "g"},
      {"measurement": "Total kidney weight/body weight %", "setting": "after 17 weeks of treatment", "value": "1.1050 ± 0.04", "unit": "%"},
      {"measurement": "IL-6 concentration in serum (ELISA)", "setting": "end of the test", "value": "19.91 ± 10.43", "unit": "pg/mL"},
      {"measurement": "Spleen weight", "setting": "end of the test", "value": "0.0756 ± 0.01", "unit": "g"},
      {"measurement": "Spleen weight/body weight %", "setting": "end of the test", "value": "0.2362 ± 0.03", "unit": "%"},
      {"measurement": "TNF-alpha concentration in serum (ELISA)", "setting": "end of the test", "value": "5.50 ± 1.13", "unit": "pg/mL"},
      {"measurement": "Total lymph node weight", "setting": "end of the test", "value": "0.1123 ± 0.03", "unit": "g"},
      {"measurement": "Total lymph node weight/body weight %", "setting": "end of the test", "value": "0.3445 ± 0.08", "unit": "%"},
      {"measurement": "Concentration of serum anti-ds-DNA antibody", "setting": "week 0", "value": "3.26 ± 0.30", "unit": "µg/mL"},
      {"measurement": "Lymph node score", "setting": "week 0", "value": "0.0 ± 0.00"},
      {"measurement": "Skin score (skin destruction)", "setting": "week 0", "value": "0.0 ± 0.00"},
      {"measurement": "Concentration of serum anti-ds-DNA antibody", "setting": "week 4", "value": "183.55 ± 28.07", "unit": "µg/mL"},
      {"measurement": "Skin score (skin destruction)", "setting": "week 4", "value": "0.0 ± 0.00"},
      {"measurement": "Lymph node score", "setting": "week 6", "value": "0.0 ± 0.00"},
      {"measurement": "Lymph node score", "setting": "week 7", "value": "0.2 ± 0.13"},
      {"measurement": "Concentration of serum anti-ds-DNA antibody", "setting": "week 8", "value": "363.75 ± 18.45", "unit": "µg/mL"},
      {"measurement": "Skin score (skin destruction)", "setting": "week 8", "value": "0.3 ± 0.15"},
      {"measurement": "Lymph node score", "setting": "week 9", "value": "0.3 ± 0.15"},
      {"measurement": "Lymph node score", "setting": "week 11", "value": "0.0 ± 0.00"},
      {"measurement": "Concentration of serum anti-ds-DNA antibody", "setting": "week 12", "value": "619.78 ± 25.47", "unit": "µg/mL"},
      {"measurement": "Lymph node score", "setting": "week 12", "value": "0.0 ± 0.00"},
      {"measurement": "Skin score (skin destruction)", "setting": "week 12", "value": "0.3 ± 0.15"},
      {"measurement": "Skin score (skin destruction)", "setting": "week 14", "value": "0.2 ± 0.13"},
      {"measurement": "Concentration of serum anti-ds-DNA antibody", "setting": "week 16", "value": "606.66 ± 26.65", "unit": "µg/mL"},
      {"measurement": "Skin score (skin destruction)", "setting": "week 16", "value": "0.1 ± 0.10"},
      {"measurement": "Lymph node score", "setting": "week 17", "value": "0.0 ± 0.00"},
      {"measurement": "Skin score (skin destruction)", "setting": "week 17", "value": "0.1 ± 0.10"}
    ]}
  ]
}
